Data: patent publication US20120100564A1, “Prediction of Memapsin 2 Cleavage Sites” (priority 2010, published 2012)
Peptide text beside a SMILES is read from it.

Key:
human memapsin 2 = biological target: T1, human memapsin 2 (Homo sapiens, UniProt P56817); assay: Determination of kcat/KM of memapsin 2 substrate peptides (steady-state kinetics and competitive hydrolysis, ESI LC/MS); type: biochemical; settings: steady-state kinetics, substrate 5 μM to 150 μM, pH 4.0, 37° C.
T1 construct: The ecto-domain of human memapsin 2 was expressed and purified as described previously (Hong et al., 2000); made in house
Source text: Materials. α-cyan-4 hydroxycinnamic acid, D0- and D6-form acetic anhydride , N-hydroxysuccinimide were purchased from Sigma. Peptide (Des-Ser1)-Cerebellin was purchased from Bachem (Bubendorf, Switzerland). All peptides derived from memapsin 2 potential substrates were synthesized by GenScript (Piscataway, N.J.). The ecto-domain of human memapsin 2 was expressed and purified as described previously (Hong et al., 2000). Monoclonal anti-memapsin 2 antibody 3E7 was purchased from Santa Cruz Biotechnology Inc (Santa Cruz, Calif.). Monoclonal anti-APP antibody 1560, MAB348 and polyclonal anti-APP antibody 5352 were purchased from Millipore (Billerica, Mass.). Monoclonal anti-actin antibody was purchased from Abcam (Cambridge, Mass.).
Determination of kcat/KM of different memapsin 2's substrates. […] Initial velocity was determined by ESI LC/MS, in which the product an substrate peak areas were quantitated. The kinetic parameters, kcat and KM were determined from non-linear regression using Grafit software (Surrey, UK). […] Relative kcat/KM of different substrates were determined by comparing the initial hydrolysis rates to that of VGSC beta 2.
Comparison of the kinetics for peptides derived from memapsin 2 protein substrates. […] The relative kcat/KM values of other twelve peptides were determined from their relative pseudo-first-order hydrolytic rates. […]

γ-secretase = assay: CTF99 level in APP-transfected CAD cells with γ-secretase inhibitor (Western blot); type: cell-based, mouse; settings: in both APPIDF and APPSW cells
Protocol: Cell culture, transfection and analysis of APP processing products. Mouse neuronal CAD cell line was cultured with DMEM/F12 media (Invitrogen, Carlsbad, Calif.) containing 10% fetal bovine serum and 2% penicillin/streptomycin. Transient trransfections were performed using Fugene HD (Roche, Sweden) according to the manufacture's instruction. 24 hours later after transfection, total cell lysate and cell media were collected and 1% of Protease inhibitor was added (Calbiochem, Gibbstown, N.J.). Aβ level in media was assayed by Aβ [1-40] Human Fluorimetric ELISA Kit (invitrogen, Carlsbad, Calif.). Conditioned media or total cell lysate from the transiently transfected cells were subjected to 10% or 10-20% tricine SDS-PAGE gels (Invitrogen, Carlsbad, Calif.), and transferred to PVDF membranes. The blots were probed with antibodies. The western blot analysis was used for determining the levels of full-length APP, APP's proteolytic products and β-actin.
APPIDF and APPSW cells were also similar in cellular processing characteristics. […] CTF99 is increased in both APPIDF and APPSW cells when γ-secretase inhibitor DAPT slowed its degradation (FIG. 4A, second line, right lanes). As expected, APP ectodomain fragment from α-secretase cleavage, sAPPα, decreased in both APPIDF and APPSW cells as compared to that in APPWT cells (FIG. 4A, fourth panel).

T1 sequence (P56817 46-457 limits assumed): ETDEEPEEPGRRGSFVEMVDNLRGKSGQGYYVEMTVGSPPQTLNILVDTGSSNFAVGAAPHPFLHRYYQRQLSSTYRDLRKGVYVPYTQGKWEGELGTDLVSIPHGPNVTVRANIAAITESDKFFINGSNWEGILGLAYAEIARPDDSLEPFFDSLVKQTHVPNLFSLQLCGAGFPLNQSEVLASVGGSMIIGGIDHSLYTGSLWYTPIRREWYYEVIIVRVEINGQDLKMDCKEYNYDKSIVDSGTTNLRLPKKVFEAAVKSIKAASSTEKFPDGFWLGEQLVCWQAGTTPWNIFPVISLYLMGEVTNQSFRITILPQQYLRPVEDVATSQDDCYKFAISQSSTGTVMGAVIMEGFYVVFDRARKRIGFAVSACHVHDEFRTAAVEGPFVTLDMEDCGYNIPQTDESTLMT

SMILES	Km (human memapsin 2) [µM]	CTF99 level (γ-secretase)
CC[C@H](C)[C@H](NC(=O)[C@H](CCCCN)NC(=O)CNC(=O)[C@H](Cc1c[nH]cn1)NC(=O)CNC(=O)[C@@H](N)CCCNC(=N)N)C(=O)N[C@@H](Cc1ccc(O)cc1)C(=O)N[C@@H](CC(C)C)C(=O)N[C@@H](CCC(N)=O)C(=O)N[C@H](C(=O)N[C@@H](CC(C)C)C(=O)N[C@@H](CC(C)C)C(=O)O)C(C)C [VGSC-β2] (H-RGHGKIYLQVLL-OH)	36.4	
C[C@H](NC(=O)Cc1cc(F)cc(F)c1)C(=O)N[C@H](C(=O)OC(C)(C)C)c1ccccc1 [DAPT]		increased
